Test results reported in US20230135093A1, “TRIAZOLYL DERIVATIVES AS GABA A ALPHA5 PAM” (Hoffmann-La Roche Inc., priority 2020, published 2023).

How the values were obtained:
[1] = target: T1, h-GABA-A α5β3γ2 (Homo sapiens, UniProt P18507+P31644); experiment: [3H]flumazenil competition binding assay on membranes of HEK293 cells expressing GABAA receptors
T1 construct: expressed in transfected cells; host or cells: Xenopus laevis oocytes, micro-injected with subunit RNA
Outline: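 Competition for [3H]flumazenil (0.5 nM for α5 subunits) was measured at equilibrium (1 h, 4 °C, Krebs-tris buffer pH 7.5) on transiently transfected HEK293 membranes bearing human α5β3γ2 receptors, with 10^−5 M diazepam defining nonspecific binding. Ki values were derived from filtration and scintillation counting, averaged over duplicates.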

[2] = target: T1, h-GABA-A α5β3γ2; experiment: Two-electrode voltage clamp electrophysiology in Xenopus oocytes expressing GABAA receptors (modulation of GABA EC20 current); assay type: cell-based
Outline: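 GABA EC20 currents in human α5β3γ2-expressing Xenopus oocytes, voltage-clamped at −80 mV (room temperature, pH 7.4), measured with and without compound at ~30× Ki applied 0.5 min into the second GABA pulse. % modulation = 100×(fold increase−1), taken from the extremum of the current ratio trace; at least 3 oocytes per concentration.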

[3] = Table 1, displacement of [3H]-Flumazenil (0.5 nM), HEK293 cells expressing human receptors, means of two determinations
[4] = Table 1, % modulation of GABA EC20 = 100*(Fold increase-1)
[5] = Table 1, Xenopus oocytes, GABA EC20, test compound at approximatively 30 fold its Ki
[6] = Table 2, reference compounds, displacement of [3H]-Flumazenil
[7] = Table 2, reference compounds, % modulation of GABA EC20
[8] = Table 2, reference compounds, GABAA α5β3γ2 overexpressing oocytes, GABA EC20

SMILES | Ki [1, 3] [µM] | Efficacy (GABA) % [2, 4] [%] | Fold increase h-GABA-A α5β3γ2 oocyte [2, 5] | Ki [1, 6] [µM] | Efficacy (GABA) % [2, 7] [%] | Fold increase h-GABA-A α5β3γ2 oocyte [2, 8]
Cn1nnc(-c2ncc(C(F)(F)F)cn2)c1Cn1ncc(N2CC(OCC(F)(F)F)C2)cc1=O [Example 120, 2-[[3-methyl-5-[5-(trifluoromethyl)pyrimidin-2-yl]triazol-4-yl]methyl]-5-[3-(2,2,2-trifluoro-ethoxy)azetidin-1-yl]pyridazin-3-one] | 0.027 | 78 | 1.78 | – | – | –
Cn1nnc(-c2ncc(C(F)(F)F)cn2)c1Cn1ncc(N2CC(OC(F)F)C2)cc1=O [Example 121, 5-[3-(difluoromethoxy)azetidin-1-yl]-2-[[3-methyl-5-[5-(trifluoromethyl)pyrimidin-2-yl]triazol-4-yl]methyl]pyridazin-3-one] | 0.0248 | 89 | 1.89 | – | – | –
CCn1nnc(-c2ccc(Cl)cc2F)c1Cn1ncc(N2CC3(CC[C@@H](C)CO3)C2)cc1=O [Example 122, (R)-2-((4-(4-chloro-2-fluorophenyl)-1-ethyl-1H-1,2,3-triazol-5-yl)methyl)-5-(7-methyl-5-oxa-2-azaspiro[3.5]nonan-2-yl)pyridazin-3(2H)-one] | 0.0555 | 141 | 2.41 | – | – | –
COc1ncc(-c2cnn(Cc3c(-c4ccc(C(F)(F)F)nn4)nnn3C)c(=O)c2)cc1Cl [Example 123, 5-(5-chloro-6-methoxypyridin-3-yl)-2-((1-methyl-4-(6-(trifluoro-methyl)pyridazin-3-yl)-1H-1,2,3-triazol-5-yl)methyl)pyridazin-3(2H)-one] | 0.0076 | 148 | 2.48 | – | – | –
CCn1nnc(-c2ccc(Cl)cc2F)c1Cn1ncc(N2CC3(CC[C@H](F)CO3)C2)cc1=O [Example 124, (S)-2-((4-(4-chloro-2-fluorophenyl)-1-ethyl-1H-1,2,3-triazol-5-yl)methyl)-5-(7-fluoro-5-oxa-2-azaspiro[3.5]nonan-2-yl)pyridazin-3(2H)-one] | 0.0102 | 105 | 2.05 | – | – | –
CCn1nnc(-c2ccc(Cl)cc2F)c1Cn1ncc(N2CC3(CC[C@@H](F)CO3)C2)cc1=O [Example 125, (R)-2-((4-(4-chloro-2-fluorophenyl)-1-ethyl-1H-1,2,3-triazol-5-yl)methyl)-5-(7-fluoro-5-oxa-2-azaspiro[3.5]nonan-2-yl)pyridazin-3(2H)-one] | 0.0253 | 69 | 1.69 | – | – | –
Cn1nnc(-c2ccc(Cl)cc2F)c1Cn1ncc(N2CC3(CC[C@H](F)CO3)C2)cc1=O [Example 126, (S)-2-((4-(4-chloro-2-fluorophenyl)-1-methyl-1H-1,2,3-triazol-5-yl)methyl)-5-(7-fluoro-5-oxa-2-azaspiro[3.5]nonan-2-yl)pyridazin-3(2H)-one] | 0.0175 | 61 | 1.61 | – | – | –
Cn1nnc(-c2ccccc2F)c1COc1ccc(-n2cnc(C(F)F)c2)nn1 [RO-007, reference compound] | – | – | – | 0.0584 | −28 | 0.72
Cn1nnc(-c2ccc(F)cc2)c1COc1ccc(C(=O)NN2CCOCC2)nn1 [RO-045, reference compound] | – | – | – | 0.0532 | −38 | 0.62
Cn1nnc(-c2ccc(F)cn2)c1COc1ccc(C(=O)NN2CCOCC2)nn1 [RO-052, reference compound] | – | – | – | 0.0334 | −15 | 0.85
